Assay results taken from patent USRE47193E1, “Selectively substituted quinoline compounds” (EISAI R&D MANAGEMENT CO., LTD., priority 2013, dated 2019).
Where “and” joins values, the source holds several entries; their conditions need not be identical. Equal values may be shown once. Read-outs that look alike come from different tables or passages of the source.

Molecular target: T1, TLR9 (Homo sapiens, UniProt Q9NR96)
T1 sequence (Q9NR96 26-1032): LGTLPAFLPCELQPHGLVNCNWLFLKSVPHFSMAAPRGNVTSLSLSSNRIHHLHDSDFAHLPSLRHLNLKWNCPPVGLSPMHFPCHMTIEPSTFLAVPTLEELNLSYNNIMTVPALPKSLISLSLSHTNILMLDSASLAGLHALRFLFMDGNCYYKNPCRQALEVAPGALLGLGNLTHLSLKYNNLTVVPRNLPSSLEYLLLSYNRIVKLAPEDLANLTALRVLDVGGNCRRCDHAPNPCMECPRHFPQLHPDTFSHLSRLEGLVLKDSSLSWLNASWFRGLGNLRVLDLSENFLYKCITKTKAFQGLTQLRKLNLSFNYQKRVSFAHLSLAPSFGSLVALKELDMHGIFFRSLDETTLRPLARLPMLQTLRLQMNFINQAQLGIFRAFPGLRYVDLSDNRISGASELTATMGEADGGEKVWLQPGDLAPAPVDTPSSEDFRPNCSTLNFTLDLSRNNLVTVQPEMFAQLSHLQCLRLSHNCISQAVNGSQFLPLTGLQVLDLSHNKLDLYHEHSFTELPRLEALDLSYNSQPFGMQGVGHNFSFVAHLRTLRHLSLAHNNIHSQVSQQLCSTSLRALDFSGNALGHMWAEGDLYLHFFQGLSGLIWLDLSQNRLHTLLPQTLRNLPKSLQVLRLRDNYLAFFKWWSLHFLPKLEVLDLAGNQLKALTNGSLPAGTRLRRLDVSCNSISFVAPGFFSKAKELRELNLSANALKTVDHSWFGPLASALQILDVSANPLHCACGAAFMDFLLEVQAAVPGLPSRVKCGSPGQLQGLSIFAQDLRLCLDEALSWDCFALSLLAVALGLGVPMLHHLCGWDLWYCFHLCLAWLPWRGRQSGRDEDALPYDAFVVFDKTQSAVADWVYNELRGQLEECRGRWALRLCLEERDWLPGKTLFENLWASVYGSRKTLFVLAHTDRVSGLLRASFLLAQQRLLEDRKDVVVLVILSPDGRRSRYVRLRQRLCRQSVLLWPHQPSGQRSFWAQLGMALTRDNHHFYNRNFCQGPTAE
Experiment: Subsequent human PBMC assay, DNA-mediated activation of TLR9, IL-6 and IFN-α
Type: cell-based
Procedure: Human PBMC Cell-Based Assay. Human peripheral blood mononuclear cells (PBMC) were isolated from freshly-drawn heparinized (10 USP units/ml, Hospira, Lakeforest, Ill.) healthy donor whole blood by density gradient (Histopaque® 1077, Sigma, Inc., St. Louis, Mo.). Briefly, 25 ml blood was diluted with 15 ml PBS (without Ca^2+, Mg^2+) in a 50 ml conical tube, and 12 ml Histopaque was underlaid using a spinal needle. Tubes were centrifuged for 45 minutes at 1200 rpm (350×g), and PBMC were collected from the buffy coat. Cells were then washed twice in PBS, and red blood cells were lysed by suspension in 5 ml ammonium chloride solution (1× Red Blood Cell Lysis Buffer, eBioscience) for 5 minutes at room temperature. After a final wash in PBS, PBMC were resuspended at a final concentration of 2×10^6/ml in RPMI-1640 media with L-glutamine (Invitrogen) and supplemented with 25 mM HEPES (Mediatech, Inc, Manassas Va.), 10% fetal bovine serum (HyClone, Logan, Utah), and Penicillin-Streptomycin-Glutamine (Mediatech) and plated at 100 ul/well (2×10^5 cells/well) in tissue culture treated 96-well plates (Falcon).
Antagonist compounds solubilized and serial diluted in 100% DMSO were added in triplicate to cells to yield a final concentration of 0.1% DMSO (v/v). Hydroxychloroquine (Acros Organics) solubilized and serial diluted in PBS was added in triplicate to cells. PBMC were incubated with antagonist compounds or HCQ for 30 minutes at 37° C., 5% CO2 before adding various TLR agonist reagents in 100 ul complete media per well as follows (final concentrations indicated): R848 (Resiquimod; GLSynthesis, Worcester, Mass.) at 1 uM for TLR7 and TLR8, LPS (Sigma) at 10 ng/ml for TLR4, and CpG-2216 (InvivoGen) at 5 ug/ml for TLR9. To prepare a TLR7/8 agonist that mimics RNA-containing auto-antibody immune complexes in lupus patients, a 26-mer RNA with a sequence derived from human U1 snRNA stem loop IV [(sequence: […]-[…] (SEQ ID NO: 2) with phosphorothioate backbone] was synthesized (Dharmacon, Inc., Lafayette, Colo.), which has been shown previously to be a potent TLR7 and TLR8 agonist. This RNA molecule was diluted to 2.5 μM in serum-free RPMI, and mouse anti-human single stranded DNA monoclonal antibody (MAB3034, Millipore, Inc., Billerica, Mass.), which also cross-reacts with RNA, was added at a 1:25 dilution or at 1 ug/ml. The resulting “RNA-Ig” stimulus was incubated at room temperature for 15-30 minutes before adding to cells. PBMC were incubated with the various TLR agonists for 20 hours at 37° C., 5% CO2. Cell culture supernatants were collected, and levels of various human cytokines were assessed as indicated by standard ELISA procedure according to the manufacturer's recommended protocol (BD Biosciences, Inc., San Diego, Calif.). In a subsequent assay (Table 6) the ability of ER-899742 to block stimulation of normal PBMC by various TLR7/8 ligands, but not DNA-mediated activation of TLR9, was examined. In this assay cells were plated at 1×10^5 cells/well in 100 ul in 96-well plates.

SMILES	IC50 (human PBMC, ligand ODN2006-DOTAP, average of donors, read-out: IC50 IFN-α Ave.) [µM]	IC50 (human PBMC, ligand ODN2006-DOTAP, average of donors, read-out: IC50 IL-6 Ave.) [µM]	IC50 (human PBMC, ligand ODN2006-DOTAP, individual donors, read-out: IC50 IFN-α)	IC50 (human PBMC, ligand ODN2006-DOTAP, individual donors, read-out: IC50 IL-6)	IC50 (human PBMC, ligand ODN2216-Ig, average of donors, read-out: IC50 IFN-α Ave.) [µM]	IC50 (human PBMC, ligand ODN2216-Ig, average of donors, read-out: IC50 IL-6 Ave.) [µM]	IC50 (human PBMC, ligand ODN2216-Ig, individual donors, read-out: IC50 IFN-α)	IC50 (IC50 IFN-α Ave., human PBMC, ligand ODN2006-DOTAP, average of donors) [µM]	IC50 (IC50 IFN-α Ave., human PBMC, ligand ODN2216-Ig, average of donors) [µM]	IC50 (IC50 IFN-α, human PBMC, ligand ODN2006-DOTAP, individual donors) [µM]	IC50 (IC50 IFN-α, human PBMC, ligand ODN2216-Ig, individual donors) [µM]	IC50 (IC50 IL-6, human PBMC, ligand ODN2006-DOTAP, individual donors) [µM]	IC50 (IC50 IL-6, human PBMC, ligand ODN2216-Ig, individual donors) [µM]	IC50 (IC50 IL-6 Ave., human PBMC, ligand ODN2006-DOTAP, average of donors) [µM]	IC50 (IC50 IL-6 Ave., human PBMC, ligand ODN2216-Ig, average of donors) [µM]
CCN(CCO)CCCC(C)Nc1ccnc2cc(Cl)ccc12 (stereo not drawn) [HCQ, hydroxychloroquine, reference compound]	3.02	1.72	0.91 µM and 4.1 µM and 3.1 µM and 3.96 µM	1.2 µM and 1.24 µM and 1.54 µM and 2.4 µM and 1.58 µM and 2.37 µM	0.29	2.38	0.28 µM and 0.29 µM	–	–	–	–	–	–	–	–
C[C@@H]1CN(c2ccc(C#N)c3ncccc23)C[C@H](C(=O)N[C@H]2CNC[C@H]2F)O1.Cl [ER-899742, (2R,6R)-4-(8-cyanoquinolin-5-yl)-N-[(3S,4R)-4-fluoropyrrolidin-3-yl]-6-methylmorpholine-2-carboxamide hydrochloride]	–	–	–	–	–	–	–	> 10	> 10	> 10	> 10	> 10	> 10	> 10	> 10
